In USRE47689E1, “Compounds for treating spinal muscular atrophy” (PTC Therapeutics, Inc., priority 2011, dated 2019):
Like-named read-outs stand apart in the source and are kept apart here.

What was measured:
Smn protein = Smn protein assay in cultured cells (SMN HTRF); format: cell-based, human; settings: 48 hours; for maximum fold (Fold) increase of Smn protein: SMA patient fibroblast cells, 7-point concentration data, fold increase relative to vehicle control (SMN HTRF); for EC1.5x (concentration giving 1.5-fold Smn protein increase): SMA Type 1 patient fibroblast cells (GM03813), 7-point concentration curve, SMN HTRF, concentration producing 1.5 times Smn protein vs DMSO vehicle control, read-out: EC1.5x for Smn protein expression
Procedure, shortened: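 Smn in SMA fibroblast lysates, measured by anti-SMN HTRF after 48 h compound exposure; EC1.5x from fold change over vehicle.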

[1] = test system: SMN2 minigene (full length SMN2 minigene mRNA containing SMN2 exon 7); experiment: SMN2 minigene mRNA splicing RT-qPCR assay in cultured cells; format: cell-based, human; settings: Homo sapiens, HEK293-H, read-out: EC1.5x for production of full length SMN2 mRNA
Procedure, shortened: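 Full-length SMN2 minigene mRNA (exon 7 included), minigene-specific and not endogenous SMN, quantified by RT-qPCR multiplexed with GAPDH in stably transfected HEK293H cells after 24 h compound exposure at 37° C. Abundance from efficiency-corrected Ct, normalized to GAPDH and vehicle; EC1.5x reported as star bins.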

[2] = HEK293H cells stably transfected with SMN2-A minigene, 24 hours, 7-point concentration curve, 1.5-fold relative to vehicle-treated cells

Structure (SMILES)	maximum fold (Fold) increase of Smn protein (Smn protein)	melting point	EC (1.5-fold) [1, 2] [µM]	EC1.5x (concentration giving 1.5-fold Smn protein increase) (Smn protein) [nM]	EC (1.5-fold) ([1]; 24 h) [µM]
O=c1oc2cc(N3CCNCC3)ccc2cc1Nc1ccc(Cl)cn1 [Compound 65, 3-[(5-chloropyridin-2-yl)amino]-7-(piperazin-1-yl)-2H-chromen-2-one]	* (maximum fold increase of ≤1.2)	253 to 255 °C	0.3 to 1	–	–
Cl.O=c1oc2cc(N3CCNCC3)ccc2cc1-c1nc2c(I)cccc2o1 [Compound 67, 3-(4-iodo-1,3-benzoxazol-2-yl)-7-(piperazin-1-yl)-2H-chromen-2-one hydrochloride]	* (maximum fold increase of ≤1.2)	280 to 285 °C	0.3 to 1	–	–
C[C@@H]1CN(c2ccc3cc(-c4nc5c(Cl)cccc5o4)c(=O)oc3c2)C[C@H](C)N1 [Compound 69, 3-(4-chloro-1,3-benzoxazol-2-yl)-7-[(3R,5S)-3,5-dimethylpiperazin-1-yl]-2H-chromen-2-one]	* (maximum fold increase of ≤1.2)	238 to 240 °C	0.1 to 0.3	–	–
Cl.O=c1oc2cc(N3CCNCC3)ccc2cc1-c1nc2c(Cl)cccc2o1 [Compound 70, 3-(4-chloro-1,3-benzoxazol-2-yl)-7-(piperazin-1-yl)-2H-chromen-2-one hydrochloride]	* (maximum fold increase of ≤1.2)	278 to 282 °C	0.3 to 1	–	–
CN1CCN(c2ccc3cc(-c4cn5ccccc5n4)c(=O)oc3c2)CC1 [Compound 72, 3-(imidazo[1,2-a]pyridin-2-yl)-7-(4-methylpiperazin-1-yl)-2H-chromen-2-one]	*** (fold increase between >1.35 and ≤1.5)	265 to 268 °C	0.3 to 1	300 to 1000	–
CN1CCN(c2ccc3cc(-c4ccn(C)n4)c(=O)oc3c2)CC1 [Compound 73, 7-(4-methylpiperazin-1-yl)-3-(1-methyl-1H-pyrazol-3-yl)-2H-chromen-2-one]	** (fold increase between >1.2 and ≤1.35)	183 to 186 °C	–	–	3 to 30
O=c1oc2cc(N3CCNCC3)ccc2cc1Nc1ccccc1 [Compound 75, 3-(phenylamino)-7-(piperazin-1-yl)-2H-chromen-2-one]	* (maximum fold increase of ≤1.2)	140 to 143 °C	–	–	3 to 30
CNCc1ccc2cc(-c3nc4ccccc4s3)c(=O)oc2c1 [Compound 78, 3-(1,3-benzothiazol-2-yl)-7-[(methylamino)methyl]-2H-chromen-2-one]	*** (fold increase between >1.35 and ≤1.5)	156 to 160 °C	0.3 to 1	–	–
CN(CCO)Cc1ccc2cc(-c3nc4ccccc4s3)c(=O)oc2c1 [Compound 79, 3-(1,3-benzothiazol-2-yl)-7-{[(2-hydroxyethyl)(methyl)amino]methyl}-2H-chromen-2-one]	*** (fold increase between >1.35 and ≤1.5)	182 to 184 °C	1 to 3	–	–
Cc1ccc2nc(-c3cc4ccc(N5CCN(C)CC5)cc4oc3=O)cn2c1 [Compound 81, 3-(6-methylimidazo[1,2-a]pyridin-2-yl)-7-(4-methylpiperazin-1-yl)-2H-chromen-2-one]	*** (fold increase between >1.35 and ≤1.5)	267 °C (dec.)	0.3 to 1	3000 to 10000	–
Cc1ccc2nc(-c3cc4ccc(N5CCN(C(C)C)CC5)cc4oc3=O)cn2c1 [Compound 82, 3-(6-methylimidazo[1,2-a]pyridin-2-yl)-7-[4-(propan-2-yl)piperazin-1-yl]-2H-chromen-2-one]	** (fold increase between >1.2 and ≤1.35)	260 °C (dec.)	1 to 3	–	–
